Key:
Type in all cases: cell-based
IKZF2 [1] = biological target: T1, IKZF2 (Homo sapiens (Human), UniProt Q96SW2+Q9UKS7); assay: In vitro IKZF2 FACS Assay in Jurkat cells; details: 24 hrs; for DC50: half maximal degradation concentration; for Dmax: maximal degradation percentage
Method: In vitro IKZF2 FACS Assay
DC50, A: <1 nM; B: 1-10 nM; C: 10-100 nM; D: 100-1000 nM; E: >1000 nM. Dmax, A: >80%; B: 60-80%; C: 40-60%; D: 20-40%; E: <20%.

IKZF2 [2] = biological target: T1, IKZF2; assay: In vitro IKZF2 HiBit Assay (HEK293T Flp-in-HiBiT cells); details: HEK293T Flp-in-HiBiT cells, 6 hrs incubation; for DC50: read-out: IKZF2 HiBit DC50; for Dmax: HEK-293T, read-out: IKZF2 HiBit Dmax (%)
Method in brief: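 Remaining tagged Helios was read as lytic HiBiT/LgBiT luminescence normalized to DMSO, yielding binned DC50 and Dmax values. Treatment ran 6 h, with compounds at 11 three-fold doses diluted from 1 mM and 0.1% final DMSO. The cells were HEK293T Flp-in with CRISPR knock-in of HiBiT at the IKZF2 N-terminus.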

IKZF1 = IKZF1 (Homo sapiens (Human), UniProt Q13422+Q96SW2); assay: In vitro IKZF1 HiBit Assay (HEK293T Flp-in-HiBiT-IKZF1 stable cell line); details: HEK293T Flp-in-HiBiT-IKZF1 stable cell line, 6 hrs incubation; for DC50: read-out: IKZF1 HiBit DC50; for Dmax: HEK-293T, read-out: IKZF1 HiBit Dmax (%)
Method in brief: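 Degradation was measured as loss of luminescence from the HiBiT-IKZF1 tag after 6 h compound treatment, with 0.1% final DMSO, in stable HEK293T Flp-in cells. Values were normalized to DMSO, giving the 50% degradation concentration and the maximal degradation range.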

Chain of IKZF1 (Q13422 whole entry): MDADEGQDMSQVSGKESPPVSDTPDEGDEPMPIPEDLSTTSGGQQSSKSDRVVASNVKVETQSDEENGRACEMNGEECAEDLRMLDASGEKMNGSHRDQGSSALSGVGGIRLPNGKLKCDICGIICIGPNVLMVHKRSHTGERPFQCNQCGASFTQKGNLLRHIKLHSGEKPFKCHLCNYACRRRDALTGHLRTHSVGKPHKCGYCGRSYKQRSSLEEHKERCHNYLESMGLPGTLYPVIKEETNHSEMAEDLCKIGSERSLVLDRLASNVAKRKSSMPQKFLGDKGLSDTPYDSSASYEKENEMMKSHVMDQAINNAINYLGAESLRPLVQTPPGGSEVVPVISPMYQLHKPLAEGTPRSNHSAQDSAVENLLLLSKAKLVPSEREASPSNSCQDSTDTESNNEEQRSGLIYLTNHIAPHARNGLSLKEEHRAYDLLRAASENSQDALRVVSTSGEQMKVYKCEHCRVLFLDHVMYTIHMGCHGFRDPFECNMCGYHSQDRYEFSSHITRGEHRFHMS
Chain of IKZF1 (Q96SW2 whole entry): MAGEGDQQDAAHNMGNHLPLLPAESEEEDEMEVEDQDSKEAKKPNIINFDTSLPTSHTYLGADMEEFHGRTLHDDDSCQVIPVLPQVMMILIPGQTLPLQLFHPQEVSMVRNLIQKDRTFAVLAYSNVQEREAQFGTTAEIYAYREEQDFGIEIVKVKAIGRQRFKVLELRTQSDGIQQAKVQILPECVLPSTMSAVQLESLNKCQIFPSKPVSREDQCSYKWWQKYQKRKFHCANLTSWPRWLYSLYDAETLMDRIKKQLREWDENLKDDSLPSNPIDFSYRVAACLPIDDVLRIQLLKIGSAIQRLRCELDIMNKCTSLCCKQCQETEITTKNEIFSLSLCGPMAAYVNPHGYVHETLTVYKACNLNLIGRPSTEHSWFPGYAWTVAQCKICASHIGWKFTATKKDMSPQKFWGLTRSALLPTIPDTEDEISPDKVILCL
Chain of IKZF1 (Q16531 2-1140 partner): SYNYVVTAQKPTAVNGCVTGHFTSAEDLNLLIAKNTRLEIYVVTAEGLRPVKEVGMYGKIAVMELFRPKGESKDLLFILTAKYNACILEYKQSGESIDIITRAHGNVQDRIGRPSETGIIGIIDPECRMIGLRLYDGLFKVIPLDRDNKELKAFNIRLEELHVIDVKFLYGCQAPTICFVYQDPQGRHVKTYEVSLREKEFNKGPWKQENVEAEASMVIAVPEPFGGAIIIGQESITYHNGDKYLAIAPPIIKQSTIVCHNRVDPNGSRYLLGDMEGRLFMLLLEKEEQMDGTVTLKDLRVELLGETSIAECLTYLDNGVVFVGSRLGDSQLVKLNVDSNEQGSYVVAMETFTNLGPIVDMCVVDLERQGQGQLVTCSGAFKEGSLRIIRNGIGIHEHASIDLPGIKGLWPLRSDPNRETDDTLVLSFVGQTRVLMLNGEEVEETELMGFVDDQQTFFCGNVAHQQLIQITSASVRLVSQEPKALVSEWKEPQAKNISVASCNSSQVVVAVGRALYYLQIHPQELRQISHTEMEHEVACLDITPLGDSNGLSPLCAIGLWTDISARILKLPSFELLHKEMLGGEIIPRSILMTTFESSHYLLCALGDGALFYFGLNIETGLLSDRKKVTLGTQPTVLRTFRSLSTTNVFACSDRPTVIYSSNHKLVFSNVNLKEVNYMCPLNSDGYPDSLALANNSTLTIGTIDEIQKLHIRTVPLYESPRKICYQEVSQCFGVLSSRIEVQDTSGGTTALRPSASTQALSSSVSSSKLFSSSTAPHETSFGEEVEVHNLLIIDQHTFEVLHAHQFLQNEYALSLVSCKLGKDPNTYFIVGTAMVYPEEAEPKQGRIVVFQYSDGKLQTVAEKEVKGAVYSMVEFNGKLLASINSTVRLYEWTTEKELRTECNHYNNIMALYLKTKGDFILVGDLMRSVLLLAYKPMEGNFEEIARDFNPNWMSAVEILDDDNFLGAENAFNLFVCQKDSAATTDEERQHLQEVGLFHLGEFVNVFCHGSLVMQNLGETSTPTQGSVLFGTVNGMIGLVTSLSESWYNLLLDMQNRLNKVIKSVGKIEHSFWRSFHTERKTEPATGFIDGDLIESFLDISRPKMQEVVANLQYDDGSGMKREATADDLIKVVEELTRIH
T1 sequence (Q9UKS7 whole entry): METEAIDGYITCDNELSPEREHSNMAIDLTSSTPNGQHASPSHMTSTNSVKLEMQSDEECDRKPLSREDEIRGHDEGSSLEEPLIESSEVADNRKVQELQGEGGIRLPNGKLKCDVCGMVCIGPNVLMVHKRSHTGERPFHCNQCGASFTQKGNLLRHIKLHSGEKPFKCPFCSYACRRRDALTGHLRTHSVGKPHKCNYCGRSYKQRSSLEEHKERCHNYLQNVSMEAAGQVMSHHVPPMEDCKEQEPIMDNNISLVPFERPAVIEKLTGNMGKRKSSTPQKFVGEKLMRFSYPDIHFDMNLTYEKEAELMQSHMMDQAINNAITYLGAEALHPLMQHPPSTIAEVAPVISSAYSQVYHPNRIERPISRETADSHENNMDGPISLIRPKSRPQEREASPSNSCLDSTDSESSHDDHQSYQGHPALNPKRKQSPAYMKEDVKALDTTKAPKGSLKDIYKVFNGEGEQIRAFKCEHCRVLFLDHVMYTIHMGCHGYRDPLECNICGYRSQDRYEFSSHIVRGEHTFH
T1 sequence (Q96SW2 whole entry): as the sequence (Q96SW2 whole entry) above
T1 sequence (Q16531 2-1140 partner): as the sequence (Q16531 2-1140 partner) above

Row | DC50 (IKZF2 [1]) | Dmax (IKZF2 [1]) | DC50 (IKZF2 [2]) | Dmax (IKZF2 [2]) | DC50 (IKZF1) | Dmax (IKZF1) | SMILES
1 | 0.001 to 0.01 µM | > 80% | 0.001 to 0.01 µM | > 80% | 0.01 to 0.1 µM | 20 to 40% | COC1CC(n2ccc3c(CN4CCCC4)cc(-c4ccc5c(c4)CN(C4CCC(=O)NC4=O)C5=O)nc32)C1 (stereo not drawn) [Example 255, 3-(5-(1-(3-methoxycyclobutyl)-4-(pyrrolidin-1-ylmethyl)-1H-pyrrolo[2,3-b]pyridin-6-yl)-1-oxoisoindolin-2-yl) piperidine-2,6-dione]
2 | 0.001 to 0.01 µM | 60 to 80% | < 0.001 µM | > 80% | 1 to 10 µM | 20 to 40% | O=C1CCC(N2Cc3cc(-c4cc(CN5CCCC5)c5ccn(C6CC(F)(F)C6)c5n4)ccc3C2=O)C(=O)N1 (stereo not drawn) [Example 274, 3-(5-(1-(3,3-difluorocyclobutyl)-4-(pyrrolidin-1-ylmethyl)-1H-pyrrolo[2,3-b]pyridin-6-yl)-1-oxoisoindolin-2-yl) piperidine-2,6-dione]
3 | 0.001 to 0.01 µM | 60 to 80% | 0.001 to 0.01 µM | 60 to 80% | > 10 µM | < 20% | COC[C@@H]1CCCN1Cc1cc(-c2ccc3c(c2)CN(C2CCC(=O)NC2=O)C3=O)nc2c1ccn2C1COC1 (stereo partly drawn) [Example 250, 3-(5-(4-(((S)-2-(methoxymethyl)pyrrolidin-1-yl)methyl)-1-(oxetan-3-yl)-1H-pyrrolo[2,3-b]pyridin-6-yl)-1-oxoisoindolin-2-yl) piperidine-2,6-dione]

Second part, the compound before the results:

Row | SMILES | DC50 (IKZF2 [1]) | Dmax (IKZF2 [1]) | DC50 (IKZF2 [2]) | Dmax (IKZF2 [2]) | DC50 (IKZF1) | Dmax (IKZF1)
4 | Cc1nn(C2COC2)c2nc(-c3ccc4c(c3)CN(C3CCC(=O)NC3=O)C4=O)cc(CN3CCCC3)c12 (stereo not drawn) [Example 246, 3-(5-(3-methyl-1-(oxetan-3-yl)-4-(pyrrolidin-1-ylmethyl)-1H-pyrazolo[3,4-b]pyridin-6-yl)-1-oxoisoindolin-2-yl) piperidine-2,6-dione] | 0.001 to 0.01 µM | > 80% | 0.001 to 0.01 µM | > 80% | > 10 µM | < 20%
5 | O=C1CCC(N2Cc3cc(-c4nc(CN5CCCC5)c5cc[nH]c5n4)ccc3C2=O)C(=O)N1 (stereo not drawn) [Example 182, 3-(1-oxo-5-(4-(pyrrolidin-1-ylmethyl)-7H-pyrrolo[2,3-d]pyrimidin-2-yl)isoindolin-2-yl) piperidine-2,6-dione] | 0.01 to 0.1 µM | 60 to 80% | 0.001 to 0.01 µM | > 80% | > 10 µM | < 20%
6 | O=C1CCC(N2Cc3c(ccc(-c4cc(CN5CCC6(CC5)COC6)c5ccn(C6CS(=O)(=O)C6)c5n4)c3F)C2=O)C(=O)N1 (stereo not drawn) [Example 272, 3-(5-(4-((2-oxa-7-azaspiro[3.5]nonan-7-yl)methyl)-1-(1,1-dioxidothietan-3-yl)-1H-pyrrolo[2,3-b]pyridin-6-yl)-4-fluoro-1-oxoisoindolin-2-yl) piperidine-2,6-dione] | 0.001 to 0.01 µM | > 80% | 0.001 to 0.01 µM | > 80% | 0.01 to 0.1 µM | 40 to 60%
7 | O=C1CCC(N2Cc3cc(-c4cc(CN5CCCC5)c5cnn(C6COC6)c5n4)ccc3C2=O)C(=O)N1 (stereo not drawn) [Example 203, 3-(5-(1-(oxetan-3-yl)-4-(pyrrolidin-1-ylmethyl)-1H-pyrazolo[3,4-b]pyridin-6-yl)-1-oxoisoindolin-2-yl) piperidine-2,6-dione] | 0.001 to 0.01 µM | > 80% | 0.001 to 0.01 µM | > 80% | 0.01 to 0.1 µM | 20 to 40%
8 | O=C1CCC(N2Cc3cc(-c4cc(CN5CCCC5)c5nccc(OC(F)F)c5n4)ccc3C2=O)C(=O)N1 (stereo not drawn) [Example 249, 3-(5-(8-(difluoromethoxy)-4-(pyrrolidin-1-ylmethyl)-1,5-naphthyridin-2-yl)-1-oxoisoindolin-2-yl) piperidine-2,6-dione] | 0.001 to 0.01 µM | > 80% | 0.001 to 0.01 µM | > 80% | > 10 µM | < 20%

— patent US20250214991A1 (Oncopia Therapeutics, Inc. d/b/a/ SK Life Science Labs, priority 2022, published 2025)
